From US20140256793A1, “MEDICAMENT FOR DISEASES ASSOCIATED WITH AMYLOID beta AND SCREENING THEREOF” (National University Corporation Hokkaido University, priority 2011, published 2014)

Assays:
N2a cells and BV-2 cells = assay: Transwell experiment: N2a-APP cells with BV-2 cells, Aβ levels by ELISA; type: cell-based, murine; conditions: for extracellular Aβ levels: no BV-2 cells on the lower wells, N2a-APP cells treated with siRNA
Experimental: Aβ40 and Aβ42 levels were measured by using a sandwich enzyme-linked immunosorbent assay (ELISA) kit from Wako. Aggregated Aβs both in medium and cells were solubilized with 4 M guanidine-HCl buffer for 2 hours at room temperature and then were subjected to ELISA. All samples were measured in duplicates.
(§1) N2a cells were cultured on 24-well plate inserts (0.5 μm pore, Costar) at 5×10^5 cells/cm^2 and then transfected with the APP770 plasmid simultaneously with siRNA for nSMase2 or SMS2 by using a Lipofectamine-2000. After 24 hours from the transfection, inserts were placed onto wells containing BV-2 cells. After an additional 24 hours of incubation, Aβ levels in the medium were measured by ELISA. Intracellular Aβ levels in BV-2 cells were also measured using ELISA after solubilization in guanidine HCl buffer as described above.

Aβ = assay: Thioflavin T test of Aβ amyloid fibril formation with exosomes; type: biochemical, human; conditions: exosomes from inhibitor- or siRNA-treated cells mixed with 25 μM Aβ42, five hours at 37° C.
Experimental: A seed-free Aβ solution was prepared essentially according to the previous report (Naiki H et al., Methods Enzymol (1999) 309: 305-318). Briefly stated, synthetic Aβ40 and Aβ42 were dissolved in a 0.02% ammonium solution at 500 μM and 300 μM, respectively. In order to remove undissolved Aβ aggregates that can act as pre-existing seeds, the prepared solution was centrifuged at 540,000×g for three hours at 4° C. The obtained supernatant was collected and stored at −80° C. until use.
Seed free Aβ (25 μM) was incubated in 100 μl of TBS comprising 0 μl, 1 μl, or 10 μl of exosome solution at 37° C. 1 μl of exosome solution was collected from culture supernatants of 1×10^6 cells. As described in the prior art document (Naiki H et al., Methods Enzymol (1999)309:305-318), fluorescence intensity of ThT in the mixture was measured using an Appliskan spectrofluorophotometer (Thermo Fisher Scientific). The optimal fluorescence intensities of amyloid fibrils were measured at an excitation wavelength of 446 nm and fluorescent wavelength of 490 nm by using a reaction mixture comprising 5 μM ThT and 50 mM glycine/NaOH with pH of 8.5.

N2a cells = assay: Measurement of exosome release from N2a cells after siRNA, C6-ceramide or bacterial SMase treatment (Western blot); type: cell-based, murine; conditions: for exosome release / secretion after siRNA knockdown: Stealth RNAi siRNA, Western blot of exosome markers; for ratio of amount of Alix compared with a control: siRNA knockdown, exosome fraction
Experimental: (§2) As previously described (Thery C et al., Curr Protoc Cell Biol Chapter: Unit 3.22 (2006)), exosomes were prepared from culture supernatants of N2a and murine primary cultured cortical nerve cells. The culture medium was replaced with a serum-free medium on the day before the preparation of exosomes. The cell culture supernatants were collected after 24 hours and sequentially centrifuged at 3,000×g for 10 minutes, at 4,000×g for 10 minutes, and at 10,000×g for 30 minutes to remove cells, dead cells, and cell fragments, and then spun down again at 100,000×g for one hour to obtain exosomes as pellets.
(§3) Treatment with imipramine (10 μM), GW4869 (10 μM), D609 (50 μM) C6-ceramide (50 μM) or bacterial SMase (100 μU/ml) was performed for 24 hours in a serum-free medium.
For RNA-mediated interference (RNAi) experiments, the inventors used Stealth RNAi™ siRNA (Invitrogen) with the following sequences:
Stealth™ Control RNA was obtained from Invitrogen SiRNA was delivered according to the manufacturer's protocol by using a Lipofectamine™ transfection reagent (Invitrogen).
(§4) Exosome pellets purified from cultures of 5×10^6 cells were solubilized with Laemmli buffer (Laemmli U K, Nature (1970) 227: 680-685) and subjected to SDS-PAGE and Western blotting. Blots were probed with a primary antibody and then probed with an HRP-conjugated secondary antibody. Bands were detected and analyzed using a combination of an ECL Plus kit (GE Healthcare) and an LAS4000 (Fujifilm Corporation).

N2a-APP cells = assay: Western blot of 100,000×g pellets from media of N2a-APP cells transfected with siRNA; type: cell-based, murine; conditions: for levels of released exosomes, estimated by the amounts of Alix and Tsg101: siRNA knockdown
Experimental: as §4, §1

[1] = tested on: N2a cells and primary cultured nerve cells; assay: Measurement of exosome release after drug treatment (Western blot of Alix, Tsg101, GM1 in 100,000×g pellets); type: cell-based, murine; conditions: 24 hours in serum-free medium; imipramine 10 μM, GW4869 10 μM, D609 50 μM
Experimental: as §2, §3, §4

[2] = tested on: BV-2 cells or primary cultured microglia; assay: Fluorescence staining and internalization assay of PKH26-labeled exosomes; type: cell-based, murine
[3] = tested on: BV-2 cells or primary cultured microglia; assay: Aβ42 uptake into microglia (ELISA); type: cell-based, murine
[4] = in the presence of BV-2 cells in the lower wells, 24 hours

Question: With “SMS2 siRNA: Stealth RNAi siRNA (Invitrogen) for SMS2, sense 5′-AUACAUAGUUAUACAGCGAUACAGG-3′ (antisense CCUGUAUCGCUGUAUAACUAUGUAU; commercial Stealth RNAi siRNA, chemistry not given here)” as the compound, how does the “Aβ levels in the BV-2 cells” value (N2a cells and BV-2 cells; compared with treatment with control RNA) read?
Answer: The value was “significantly increased”.

Question: What about the “level of Aβ40 in the culture media” value (N2a cells and BV-2 cells; [4]) of the same compound?
Answer: The value was “significantly decreased”.

Question: What about the “level of Aβ42 in the culture media” value (N2a cells and BV-2 cells; [4]) of the same compound?
Answer: Its value is “significantly decreased”.

Question: And the “extracellular Aβ levels” value (N2a cells and BV-2 cells)?
Answer: Its value is “unchanged”.

Question: What about the “Aβ fibrillogenesis (ThT fluorescence) by exosomes purified from treated cultures, compared with controls” value (“Aβ fibrillogenesis … compared with controls” for short) (Aβ) of the same compound?
Answer: Its value is “increased”.

Question: And the “exosome release / secretion after siRNA knockdown” value (from here on “exosome release / secretion”) (N2a cells)?
Answer: The value was “significant increases”.

Question: What about the “ratio of amount of Alix compared with a control” value (N2a cells) of the same compound?
Answer: The value was 424.75±45.96%.

Question: And the “Aβ in 100,000×g pellets” value (N2a-APP cells; Western blotting)?
Answer: Its value is “detected”.

Question: And the “levels of released exosomes, estimated by the amounts of Alix and Tsg101” value (N2a-APP cells)?
Answer: The value was “obviously modulated”.

Question: What does the source list for “nSMase2 siRNA: Stealth RNAi siRNA (Invitrogen) for nSMase2, sense 5′-AAUCGAUGUAGAUCUUGAUCUGAGG-3′ (antisense CCUCAGAUCAAGAUCUACAUCGAUU; commercial Stealth RNAi siRNA, chemistry not given here)”?
Answer: extracellular Aβ levels (N2a cells and BV-2 cells): unchanged; Aβ fibrillogenesis (ThT fluorescence) by exosomes purified from treated cultures, compared with controls (Aβ): significantly reduced; exosome release / secretion after siRNA knockdown (N2a cells): reduced; levels of released exosomes, estimated by the amounts of Alix and Tsg101 (N2a-APP cells): obviously modulated

Question: How did the “levels of released exosomes (exosomal markers Alix, Tsg101, GM1 in 100,000×g pellets)” value [1] turn out when `CN(C)CCCN1c2ccccc2CCc2ccccc21` [imipramine] was run?
Answer: The value was “did not change”.

Question: How did the “levels of released exosomes (exosomal markers Alix, Tsg101, GM1 in 100,000×g pellets)” value [1] turn out when `O=C(/C=C/c1ccc(/C=C/C(=O)Nc2ccc(C3=NCCN3)cc2)cc1)Nc1ccc(C2=NCCN2)cc1` [GW4869] was run?
Answer: The value was “significantly decreased”.

Question: What about the “Aβ fibrillogenesis … compared with controls” value (Aβ) of the same compound?
Answer: The value was “significantly reduced”.

Question: Which results are given for “SMS1 siRNA: Stealth RNAi siRNA (Invitrogen) for SMS1, sense 5′-AUACAUUGUAAUACACCGAUACAGG-3′ (antisense CCUGUAUCGGUGUAUUACAAUGUAU; Commercial Stealth RNAi siRNA, modifications not given here)”?
Answer: exosome release / secretion after siRNA knockdown (N2a cells): significant increases; ratio of amount of Alix compared with a control (N2a cells): 186.02±9.77%

Question: Which “uptake of exosomes into BV-2 cells or primary cultured microglia” value [2] does the source give for “AV: annexin V, specifically recognizes phosphatidylserine (PS)” here?
Answer: The value was “significantly suppressed”.

Question: And the “Aβ uptake into microglia” value [3]?
Answer: The value was “significantly suppressed”.

Question: How did the “release levels of exosomes” value (N2a cells; C6-ceramide 50 μM or bacterial SMase 100 μU/ml, 24 hours) turn out when `CCCCCCCCCCCCC/C=C/[C@@H](O)[C@H](CO)NC(=O)CCCCC` [C6-ceramide, N-hexanoyl-D-erythro-sphingosine] was run?
Answer: The value was “significantly increased”.

Question: For “nSMase1 siRNA: Stealth RNAi siRNA (Invitrogen) for nSMase1, sense 5′-AAUAGAACCACAUCUGCAUUCUUGG-3′ (antisense CCAAGAAUGCAGAUGUGGUUCUAUU; Commercial Stealth RNAi siRNA, modifications not given here)”, which “exosome release / secretion” value (N2a cells) is on record?
Answer: Its value is “did not change”.

Question: Which “levels of released exosomes (exosomal markers Alix, Tsg101, GM1 in 100,000×g pellets)” value [1] does the source give for `S=C([S-])OC1CC2CC1C1CCCC21.[K+]` (stereo not shown) [D609] here?
Answer: The value was “significant enhancement”.

Question: And the “Aβ fibrillogenesis … compared with controls” value (Aβ)?
Answer: Its value is “increased”.

Question: “aSMase siRNA: Stealth RNAi siRNA (Invitrogen) for aSMase, sense 5′-AUUGGUUUCCCUUUAUGAAGGGAGG-3′ (antisense CCUCCCUUCAUAAAGGGAAACCAAU; Commercial Stealth RNAi siRNA, modifications not given here)” was tested. Which “exosome release / secretion” value (N2a cells) did it give?
Answer: Its value is “did not change”.
